Like-named read-outs stand apart in the source and are kept apart here. Numbered stars: 1 amine (or outer) side, 2 acyl side, 3 side chain; on linkers, the order of the positions; unused ones are H or OH. Peptide text beside a SMILES is read from it. * marks the point of attachment. X1 = O=C(O)CN1CCN(CC(=O)O)CC(Cc2ccc(NC(=S)*)cc2)N(CC(=O)O)CC1; γGlu = O=C(O)[CH](CCC(=O)[*:2])N[*:1]; CO = O=C([*:1])[*:2]; Ahx = NCCCCCC(=O)O
Legend:
[1] = assessment of stability (radiolysis) by radio-HPLC; format: physicochemical
Method: The compound in Figure 7 was not further developed as a potential theranostic agent since the need for a radioprotectant with Ga-68 labeling indicated potentially significant instability with high dose beta and alpha emitters.
Figure 8. Radio-HPLC trace of the compound in Figure 7 seventy minutes after labeling with Ga-68. The labeling reaction consisted of 2 μL of the compound (0.5mg/mL), 40 μL of NaOAc Buffer B, 5 μL ascorbic acid (100mg/mL) and 0.2mL of Eckert & Ziegler GalliaPharm Generator eluate. Buffer B composition is stated above. The HPLC gradient used was 5%-95%B in 15 minutes where solvent B is acetonitrile and solvent A is water with 0.1% formic acid. Column: Phenomenex Synergi Hydro-RP 80A 150x4.6mm 4 micrometer column (Phenomenex, Torrance, CA).
Figure 10. Radio-HPLC trace of [^68Ga]Ga-JB-1498 immediately after radiolabeling. The small signal at the solvent front is a very small amount of [^68Ga]GaCl3. The labeling reaction contained 2 μL of JB1498 (0.5mg/mL), 40 μL of NaOAc Buffer B and 0.2mL of Eckert & Ziegler GalliaPharm Generator eluate. Buffer B composition is stated above. The HPLC gradient used was 5%-95%B in 15 minutes where solvent B is acetonitrile and solvent A is water with 0.1% formic acid. Column: Waters (Milford, MA) Symmetry C18, 5μm, 4.6 x 150 mm column.

[2] = micro-PET imaging in non-tumor-bearing NSG mice; format: in vivo; details: during the first hour
Method: For the micro-PET imaging study, high molar activity [^68Ga]Ga-JB-1498 and [^68Ga]Ga-PSMA-11 were administered to non-tumor bearing NSG mice via tail vein injection. The dose injected was 5.3MBq of [^68Ga]Ga-PSMA-11 and 4.4 MBq of [^68Ga]Ga-JB-1498. Imaging was performed on a nanoScan PET/CT instrument (Mediso USA, Arlington, Virginia). List mode PET acquisition was performed for 45 min starting 25 min post-injection. CT was performed for PET attenuation correction and anatomic localization.

LNCaP cell line = system: LNCaP cell line; parameters: method as in Rousseau et al. [2018]; details: NSG mice, one hour after injection, ref Rousseau et al. [2018], cited from earlier work
[3] = LNCaP tumor model, listed as [^68Ga]Ga-PSMA 11

Structure (SMILES) | stability on radio-HPLC after Ga-68 labeling with radioprotectant ([1]; aqueous sodium acetate buffer with ascorbic acid) | degradation on radio-HPLC after Ga-68 labeling without radioprotectant ([1]; aqueous sodium acetate buffer, no radioprotectant) | radiolysis on radio-HPLC two hours after radiolabeling ([1]; in the presence of ascorbic acid) | course of activity in salivary glands and kidneys, dynamic micro-PET [2] | Biodistribution, Blood (LNCaP cell line; LNCaP tumor model) | Biodistribution, Kidney (LNCaP cell line; LNCaP tumor model) | Biodistribution, Liver (LNCaP cell line; LNCaP tumor model) | Biodistribution, Muscle (LNCaP cell line; LNCaP tumor model) | Biodistribution, Salivary gland (LNCaP cell line; LNCaP tumor model) | Biodistribution, Spleen (LNCaP cell line; LNCaP tumor model) | Biodistribution, Kidney (LNCaP cell line; [3]) | Biodistribution, Salivary gland (LNCaP cell line; [3]) | Biodistribution, Tumor (LNCaP cell line; LNCaP tumor)
NC(=O)C(CCCCNC(=S)Nc1ccc(CC2CN(CC(=O)O)CCN(CC(=O)O)CCN2CC(=O)O)cc1)NC(=O)C(Cc1ccc(O)cc1)NC(=O)C(CCC(=O)O)NC(=O)C(CCC(=O)O)NC(=O)C(CCC(=O)O)NC(=O)CCCCCNC(=O)CCC(NC(=O)NC(CCC(=O)O)C(=O)O)C(=O)O (stereo not shown) (68Ga complex, metal not drawn) [compound in Figure 7] ({Glu-CO-γGlu-Ahx}-EEEYK(X1)-NH2; configuration not given here) | reasonable stability with minimal degradation | multiple peaks in radio-HPLC | some radiolysis | – | – | – | – | – | – | – | – | – | –
O=C([O-])CN(CCN(CC(=O)[O-])Cc1cc(CCC(=O)NCCCCCC(=O)NCCCC[C@H](NC(=O)N[C@@H](CCC(=O)O)C(=O)O)C(=O)O)ccc1[O-])Cc1cc(CCC(=O)O)ccc1[O-].[68Ga+3].[OH3+] [[^68Ga]Ga-PSMA-11] | – | – | – | gradually increasing | 0.31%ID/gram of tissue | 182.0 ± 33.5 %ID/gram of tissue | 0.44%ID/gram of tissue | 0.54%ID/gram of tissue | 10.00 ± 2.52 %ID/gram of tissue | 22.20%ID/gram of tissue | 182.00%ID/gram of tissue | 10.00%ID/gram of tissue | 8.67%ID/gram of tissue

— paper PMC10828251, “A novel PSMA-targeting tracer with highly negatively charged linker demonstrates decreased salivary gland uptake in mice compared to [^68Ga]Ga-PSMA-11” (EJNMMI Radiopharmacy and Chemistry, 2024)
